Source: US20250235415A1, “MODULATION OF HUMAN BREAST MILK COMPOSITION” (LUNDQUIST INSTITUTE FOR BIOMEDICAL INNOVATION AT …, priority 2022, published 2025)
Entries after “also recorded” stand apart in the source; their conditions may differ. Where a name gives a salt, the structure may show the parent alone. Read-outs that look alike come from different tables or passages of the source.

Columns and labels:
infant gut microbiota = experiment: TIM-2 in vitro proximal colon model inoculated with infant feces; design: species or system human; details: high dose LNnT (1000 mg/L) with infant formula
Protocol: Preliminary Data on Effect of HMOs on infant microbiome: These in vitro studies were performed with TIM-2 107-121 inoculated with feces from 3-month old breast-fed infants (pooled microbiota of 5 infants).
Effect of HMO lacto-N-neotetraose (LNnT) on microbiome metabolic activity: We studied the effect of the most abundant HMOs LNnT (200 and 1000 mg/L) on the metabolic activity of the gut microbiota in TIM-2 when exposed to infant formula.
TIM-2 in vitro Colon Model: TIM-2 simulates the colon and consists of four interconnected compartments containing flexible membranes in which peristaltic movements are mimicked. Conditions of healthy human infants are simulated including: body temperature, lumen pH, composition and rate of secretion fluids, delivery of a predigested substrate from the ‘ileum’, mixing and transport of intestinal contents by peristalsis, absorption of water and microbial metabolites through a dialysis system, and presence of a complex, high density, metabolically active and anaerobic microbiota of healthy human infants. The dialysis system prevents accumulation of microbial metabolites, which would otherwise inhibit or kill gut microbiota. The model will be inoculated with a pooled microbiota of healthy human infants (˜2 months) using feces collected (diaper samples) from 10 volunteers and pooled in an anaerobic cabinet to allow for a standardized microbiota. […]

[1] = test system: mammary epithelial cells (MECs); experiment: 3-D mouse mammary epithelial cell (MEC) primary culture: milk and lipid synthesis and secretion; format: cell-based; details: for palmitate-induced MEC "milk" triglyceride concentration: orlistat 100 μmol/L together with palmitate 100 μmol/L; for palmitate-induced MEC "milk" triglyceride concentration / MEC "milk" β-casein protein expression / MEC "milk" triglyceride secretion / concentration: 48 h; for MEC "milk" β-casein protein expression: palmitate 50, 100 μmol/L; for MEC "milk" β-casein protein expression / MEC "milk" triglyceride secretion / concentration: (sodium salt); for MEC "milk" triglyceride secretion / concentration: palmitate 50, 100 μmol/L in basolateral chamber, vs untreated MECs
Protocol: The growth medium consisted of RPMI-1640 supplemented with 10% FBS, 10 μg/mL of insulin, 10 ng/ml of EGF, 100 U/mL of penicillin, and 100 μg/mL of streptomycin. The lactogenic medium consisted of growth medium plus 0.5 U/mL of prolactin and 1 μM dexamethasone. The palmitate-albumin conjugate stock solution contained a palmitate solution (2 mM/L in 50% ethanol) and FA-free BSA (2%) and was diluted in lactation medium to provide 50 and 100 μmol/L palmitate concentrations. Orlistat was dissolved in ethanol.
3-D Cell Culture Model: This example recreated the milk production pathway in mammary epithelial cell (MEC) primary cultures. The method uses cell culture inserts to maintain the cell polarity of MECs, which secrete milk components into the apical (upper) compartment from nutrient sources in the basolateral (lower) compartment (FIG. 1). Briefly, the mice (N=6) were euthanized, and the 4th abdominal mammary glands from both sides were collected in PBS buffer for the isolation of MECs. The mammary glands were minced and incubated in RPMI-1640 medium containing collagenase III (1.5 mg/mL) for 2 h at 37° C. with gentle shaking, followed by centrifugation (600×g for 1 min). The pellet was re-suspended in RPMI-1640 with 0.2% trypsin for 5 min at room temperature. The fragments of the mammary epithelium were dissociated by gentle pipetting with a Pasteur pipette and centrifuged (600×g for 1 min), and the pellet was re-suspended in 60% FBS (fetal bovine serum) followed by centrifugation (10×g for 1 min). The trypsin treatment and centrifugation with FBS were repeated for the isolation of mammary epithelial fragments without contaminating cells, such as fibroblasts, adipocytes, and myoepithelial cells. The epithelial fragments (0.1 mg) were subsequently seeded in 24-well cell culture plates with inserts to separate the basolateral chamber containing the lactogenic medium (nutrients) and the apical chamber containing the secreted MEC “milk”. The cells were cultured for 6 days at 37° C. in growth medium placed in the basolateral chamber. To induce lactogenesis, MECs were cultured in lactogenic medium placed in the basolateral and apical chambers for 2 days at 37° C. To induce a high milk production ability, MECs were cultured at 39° C. with the lactogenic medium in the basolateral chamber and with RMPI-1640 in the apical chamber (FIG. 1).
Treatments: Palmitate (50, 100 μmol/L) or the lipase inhibitor orlistat (100 μmol/L) together with palmitate (100 μmol/L) were added to the lactogenic medium within the basolateral chamber, and RPMI-1640 was maintained in the apical chamber. After 48 h, MECs and apical medium were collected separately for analysis, as described below.
Sample Analysis: Henceforth, we refer to cellular MECs as “MECs” and to apical medium as MEC “milk”. MECs were fixed for immunostaining or stored at −80° C. for protein and mRNA expression studies. MEC “milk” was frozen at −80° C. and analyzed for triglyceride concentration and protein and mRNA expression.
Western Blot: The cells were harvested and dissolved in RIPA solution with a protease inhibitor cocktail and sonicated, and the cell lysates were processed for the analysis of protein concentration by the […] Protein Assay Kit. For the detection of pSTAT5, the protein phosphatase inhibitor NaF (50 mM) was added to all buffers. MEC protein expression of β-casein (25 kDa), FAS (270 KDa), SREBP1 (68 KDa), and pSTAT5 (92 KDa) was analyzed.
MEC “milk” was similarly analyzed for protein expression of β-casein.
RT-PCR: The mRNA abundance of the target genes (lipoprotein lipase, LPL; FAS) and the reference gene (18S) in MEC and MEC “milk” was determined by RT-PCR. Briefly, RNA was extracted following the manufacturer's instructions, using the RNeasy Mini Kit (Qiagen, Valencia, CA, USA). Briefly, a guanidine-thiocyanate-containing lysis buffer and ethanol were added to the samples to promote the selective binding of RNA to the RNeasy membrane. […]

[2] = test system: mammary epithelial cells (MECs); experiment: Cell permeability: FITC and FITC-dextran flux from basolateral to apical compartment; format: cell-based, mouse
Protocol: Cell Permeability: To assess whether mammary epithelial permeability was altered by the treatments, we measured the unidirectional flux of fluorescein isothiocyanate (FITC, molecular weight 376) and FITC-labeled dextran 3000 (FITC-dex) from the basolateral to the apical compartments. MECs were prepared as stated above and treated with palmitate and orlistat as described above. After 2 days, FITC and FITC-dex (0.5 mg/mL) were added to the basolateral chamber, and the cells were incubated for 1 h. Thereafter, the basolateral and apical media were aspirated separately, and fluorescence intensity was measured at 490/520 nm excitation/emission maxima. The permeability of the cells is expressed as percent of flux into the apical chamber/total FITC administered into the basolateral chamber.

in vitro cultures = experiment: Cell viability of in vitro cultures with orlistat; format: cell-based; details: orlistat 250 μM, orlistat-to-palmitate ratio 1:1
[3] = humans; cited from earlier work

CC(=O)N[C@H]1[C@H](O[C@H]2[C@@H](O)[C@@H](CO)O[C@@H](O[C@H]3[C@H](O)[C@@H](O)C(O)O[C@@H]3CO)[C@@H]2O)O[C@H](CO)[C@@H](O[C@@H]2O[C@H](CO)[C@H](O)[C@H](O)[C@H]2O)[C@@H]1O (mixture of isomers) [LNnT, lacto-N-neotetraose]
L-lactate production by gut microbiota (infant gut microbiota): increased

CCCCCCCCCCC[C@@H](C[C@@H]1OC(=O)[C@H]1CCCCCC)OC(=O)[C@H](CC(C)C)NC=O [orlistat]
palmitate-induced MEC "milk" triglyceride concentration [1]: reversed; also recorded: suppressed
palmitate-induced MEC "milk" triglyceride concentration ([1]; listed as Orlistat): normalized
FITC fluorescence measured in the apical chamber, treated vs non-treated ([2]; after 48 h treatment, 1 h incubation with FITC): comparable
cell viability (in vitro cultures): demonstrated cell viability
systemic absorption [3]: minimal

CCCCCCCCCCCCCCCC(=O)O [palmitate, palmitate (sodium salt)]
MEC "milk" β-casein protein expression ([1]; apical medium): dose-dependent increase
MEC "milk" β-casein protein expression ([1]; apical medium, listed as palmitic): increases
MEC "milk" mRNA expression of Fas ([1]; apical medium, palmitate 48 h): increased
MEC "milk" mRNA expression of Lpl ([1]; apical medium, palmitate 48 h): increased
MEC mRNA expression of Fas ([1]; cellular MECs, palmitate 48 h): increased
MEC mRNA expression of Lpl ([1]; cellular MECs, palmitate 48 h): increased
MEC protein expression of FAS ([1]; cellular MECs, palmitate 48 h): increased
MEC protein expression of SREBP1 ([1]; cellular MECs, palmitate 48 h): increased
MEC protein expression of pSTAT5 ([1]; cellular MECs, palmitate 48 h): increased
MEC protein expression of β-casein ([1]; cellular MECs, palmitate 48 h): increased
MEC "milk" triglyceride secretion / concentration [1]: dose-dependent increase
MEC "milk" triglyceride secretion / concentration ([1]; listed as Na-palmitate): doubled
MEC "milk" triglyceride secretion / concentration ([1]; listed as palmitic): increases
FITC fluorescence measured in the apical chamber, treated vs non-treated [2]: comparable
